# Measurements reported in US11090305B2, “Methods and compositions to reduce oxidative stress” (University of Massachusetts, priority 2009, dated 2021).
# Columns and labels:
# db/db MSC = experiment: Response of db/db MSC to adipogenic medium (Oil Red O staining); assay type: cell-based, mouse
# Protocol: Adipocytes were identified by Oil Red O staining. m±sd, n=5, *p<0.05.
# Adipocytes were identified by Oil Red O staining. m±sd, n=4, *p<0.05 vs control. […] Endothelial cells were identified by CD31 staining. m±sd, n=4, *p<0.05 vs control, #p<0.05 vs 5 nM.
# [1] = tested on: HSCs from hypercholesterolemic mice; experiment: H2O2 in lysates from freshly harvested HSCs; set-up: species or system mouse; conditions: ApoE and HCD mice, in vivo treatment
# Protocol: HSCs were purified from bone marrow mononuclear cells by multi-parameter FACS sorting using the surface phenotype cKit^+Sca-1^+CD90.1^lowLin^−. A greater percentage of HSCs from ApoE^−/− and HCD mice stain with 2′,7′-dichlorofluorescein diacetate than WT KSL cells, indicating a higher oxidant level in cells from hypercholesterolemic mice. Two additional assays were carried out that confirmed this earlier finding: first, the level of H2O2 in HSC cell lysates, determined by spectrophotometry, was greater in ApoE^−/− and HCD mice than in WT mice (FIG. 42A).
# p38 MAPK = experiment: Phosphorylated (activated) p38 MAPK expression in HSCs; assay type: in vivo, mouse
# From the text: Activation of p38 MAPK by ROS has been reported in Atm^−/− mice and this event participates in ROS-induced loss of HSC quiescence. Expression of p38 MAPK was similar in HSCs from ApoE^−/−, HCD, and WT mice. However, expression of activated (phosphorylated) p38 MAPK is greater in HSCs from hypercholesterolemic mice than from WT mice (FIGS. 44A and 44B). FIGS. 44A-44C show p38 MAPK activation is greater in HSC from hypercholesterolemic mice. […] Neither treatment affected the outcome of competitive transplant with WT HSCs. m±sd, n=5 mice per group, *p<0.05 vs. WT, † p<0.05 vs. ApoE.
# [2] = tested on: p19^Arf, p21^Waf1, and p27^Kip1; experiment: RT-PCR expression of p19^Arf, p21^Waf1, p27^Kip1 in HSCs; assay type: in vivo, mouse; conditions: ApoE^−/− mice, in vivo treatment
# Protocol: The expression of p15^Ink4b, p16^Ink4a, p18^Ink4c, p19^ARF, P21^Waf1, and p27^Kip1 was determined using RT-PCR, a more sensitive and quantitative assay, in ApoE^−/− and WT HSCs.
# Notch1 = Notch1 expression in HSCs and lymphoid progenitors (Example 5); assay type: in vivo, mouse
# Protocol: (§1) Cells were stained with monoclonal antibodies conjugated to various fluoroprobes. These antibodies included: Notch1, cKit (2B8), Sca-1 (E13-161.7), CD4 (L3T4), CD8 (53-6.72), CD90.1, CD25, CD44, TCRβ, NK1.1, γδTCR, CD45.1, CD45.2. The lineage cocktail consisted of CD4, CD8, B220 (RA3-6B2), TER-119, Mac-1 (MI/70), and Gr-1 (RB6-8C5). All antibodies were purchased from BD Bioscience (San Diego, Calif.). FACS analysis was carried out on a FACS Diva.
# The Notch family is an evolutionarily conserved system of receptors and ligands that play a fundamental role in regulating cell-fate decision in many types of stem and progenitor cells, including HSCs. Notch1 plays a critical role in lymphocyte differentiation, wherein expression of Notch1 favors T cell differentiation. To clarify the effects of hypercholesterolemia on the expression Notch family, the expression of Notch family was screened in HSCs isolated from WT and ApoE^−/− mice. The percentage of HSCs expressing of Notch1 was higher in hypercholesterolemic than WT mice, whereas no differences in Notch2, Notch4, or Delta-like-1 were noted among groups (FIG. 47A). FIGS. 47A-47D show notch 1 expression is greater in HSCs from hypercholesterolemic mice. […] (B) Within the HSC population, a higher percentage of long term-HSCs expressed Notch1 than did short term-HSCs. This difference was evident in both WT and ApoE^−/− mice, although the percentage of short term-HSCs expressing Notch1 was twofold higher in ApoE^−/− than WT mice. […] (D) Treatment of ApoE^−/−, but not WT mice with SB203580 reduced the percentage of HSCs expressing Notch1. m±sd, n=5, *p<0.05 vs. WT, †p<0.05 vs. ApoE or HCD, p<0.05 vs. long-term HSCs.
# NKT and γδT cells = experiment: NKT and γδT cell populations (flow cytometry, immunostaining); assay type: in vivo, mouse; conditions: hypercholesterolemic mice, 4 weeks
# From the text: All mice were purchased from Jackson Laboratories (Bar Harbor, Me.) and were maintained in the mouse barrier facility. Care of mice was in accordance with NIH guidelines and the Institutional Animal Care and Use Committee of the University of Massachusetts Medical School approved all protocols. Mice were kept on a 12 hr day/night schedule and were allowed free access to chow and water. ApoE^−/− and WT mice were fed standard mouse chow (5.4 g fat/100 g diet, 0% cholesterol). HCD mice were fed a diet with 10 g fat/100 g diet, […] (Research Diets, New Brunswick, N.J.). […] Azoxymethane (AOM) was given by intraperitoneal injection (10 mg/Kg weekly for 3 weeks); 1% dextran sodium sulfate was added to the drinking water for the Pt week after AOM treatment.
# as §1
# The colon and rectum was removed en bloc from each mouse and the number of polyps was identified using a dissecting microscope. Each polyp was frozen in OCT at −80° C. and cryosections (10 μM) cut. H&E staining was used to identify the histological grade of each polyp, assigned by a pathologist blinded to study condition. Standard immunostaining protocol was used to identify γδT cells (monoclonal antibody to γδTCR, DAPI counterstaining) and NKT cells (monoclonal antibodies to TCR and NK1.1, DAPI counterstaining). Sections were viewed with a Zeiss immunofluorescent microscope and Axiovert software.
# [3] = ApoE^−/− mice, in vivo treatment
structure (smiles),measurement,setting,value
"CC(=O)N[C@@H](CS)C(=O)O [NAC, N-acetylcysteine]",differentiation towards adipocytes,db/db MSC,reduced adipogenesis
same,H2O2 in HSC lysates,[1],significantly decreased by in vivo NAC treatment
same,expression of activated p38 in HSCs,p38 MAPK; [3],significantly reduced expression of activated p38 in ApoE^−/− HSCs
same,expression of activated p38 in HSCs,p38 MAPK; WT mice,had no effect on activated p38 expression in WT HSCs
same,"HSC expression of p19^Arf, p21^Waf1, and p27^Kip1",[2],fully reversed these increases
same,percentages of pre-B cells and pro-T cells expressing Notch1,Notch1; [3],these effects were reversed by in vivo treatment with NAC
same,percentage of HSCs expressing Notch1,Notch1; WT mice,no effect was noted in WT mice
same,percentage of HSCs expressing Notch1,"Notch1; hypercholesterolemic mice (ApoE^−/−, HCD), in vivo treatment",significantly reduced the percentage of ApoE^−/− and HCD HSCs expressing Notch1
same,colonic resident populations of NKT and γδT cells,NKT and γδT cells; healthy colon,restored the colonic resident populations of NKT and γδT cells to WT levels
same,numbers of NKT and γδT cells in AOM-induced polyps,NKT and γδT cells,significantly increased the numbers of NKT and γδT cells in all grades of AOM-induced polyps
same,percentages of γδT cells and NKT cells in the thymus and peripheral blood,NKT and γδT cells,reversed by in vivo treatment with NAC for 4 weeks
